Assay results taken from patent US9927444B2, “Bone marrow-derived hematopoietic progenitor cells and endothelial progenitor cells as prognostic indicators for cancer” (Cornell University, priority 2011, dated 2018).

What was measured:
[1] = test system: advanced renal cell carcinoma; conditions: 13 patients; cited from earlier work
[2] = test system: VEGFR2+ endothelial progenitor cells (EPCs); assay: Enumeration of circulating EPCs by flow cytometry, phase II TM trial; type: in vivo, human
Method: (§1) Ten to 20 mL of venous blood were collected in EDTA-containing tubes and processed within 12 hours. Peripheral blood mononuclear cells were isolated by Ficoll density-gradient centrifugation. To quantitate circulating EPCs, cells were stained with CD133-PE (Miltenyi Biotec, Auburn, Calif.), VEGFR2-APC (R&D Systems, Minneapolis, Minn.), and CD45-PerCP (BD Biosciences, Franklin Lakes, N.J.). To quantitate HPCs, cells were stained with CD34-FITC (BD Biosciences), VEGFR1-APC (R&D Systems), and CD45-PerCP (BD Biosciences). An aliquot of cells was also stained with the appropriate isotype controls (mouse anti-human IgG1k). Samples were analyzed using a FACSCalibur flow cytometer (Bectin Dickinson, San Jose, Calif.). Three hundred thousand events were collected in the nucleated cell gate (excludes debris and platelets). Data analysis was done using FlowJo software (FlowJo, Ashland, Oreg.). A series of consecutive gates were made to include and exclude acquired events to quantitate specific populations such as CD45^+, CD34^+, VEGFR1^+. The number of EPCs and HPCs per mL of blood was calculated as follows: HPC/mL=(# HPC events/# lymphocyte events)×absolute lymphocyte count (lymphocytes/mL). EPC/mL=(# EPC events/# lymphocyte events)×absolute lymphocyte count (lymphocytes/mL). HPCs were defined as CD45^+, CD34^+, VEGFR1^+ (FIGS. 5A-5C). […]
(§2) PFS was analyzed using survival analysis techniques.

[3] = stored under argon; cited from earlier work
SDF1, VEGFR2, C-kit = assay: Plasma angiogenic factors and cytokine profiling, phase II TM trial; type: in vivo, human
Method: Plasma SDF-1 was detected by enzyme-linked immunosorbent assay (R&D Systems) according to manufacturer's protocol. Plasma levels of c-kit, VEGF, VEGFR1, VEGFR2, bFGF, and PIGF were detected by multiplex assay (Meso Scale Discovery, Gaithersburg, Md.) per manufacturer protocol.
as §2

[4] = in vivo
Text: (§4) The National Cancer Institute—Common Toxicity Criteria for Adverse Events (CTCAE) version 3.0 were used for toxicity and adverse event reporting. In the event of grade 3/4 toxicity, dosing was held until recovery. Treatment was resumed at the investigator's discretion at 50% of the previous dose. […] In the event of grade 2 toxicity, the dose of TM was held until recovery and a new cycle could be initiated at 100%. If grade 2 toxicity recurred, dosing was held until recovery and the next cycle was resumed at 50%. All patients were available to be evaluated for toxicity.
(§5) The intent-to-treat (ITT) population consisted of all patients who received at least one dose of TM. […] The following outcomes were recorded: toxicity attributable to TM, time to progression of disease, number of circulating hemangiogenic progenitor cells, serum markers of angiogenesis. Descriptive statistics for demographic and angiogenic variables were calculated for all patients. […] All p-values were two-sided with statistical significance evaluated at the 0.05 alpha level. All analyses were performed in SPSS Version 18.0 (SPSS Inc., Chicago, Ill.).

malignant mesothelioma = conditions: after adjuvant TM; doubling from 10; cited from earlier work
[5] = reversible, managed with dose reductions; cited from earlier work
[6] = test system: advanced malignancy refractory to standard therapy; conditions: phase I; cited from earlier work
[7] = Safety and tolerability (CTCAE version 3.0), phase II TM trial
Text: as §4, §5

[8] = test system: VEGFR1+ hematopoietic progenitor cells (HPCs); assay: Enumeration of circulating HPCs by flow cytometry, phase II TM trial; type: in vivo, human; conditions: patients on TM
Method: as §1, §2

[9] = test system: breast cancer at high risk for relapse; assay: Clinical outcomes (relapse, progression-free survival), phase II TM trial; type: in vivo, human
Method: (§3) This phase II, open-label, single-arm study was conducted to assess patients with breast cancer at high risk for relapse. Patients were enrolled on an Institutional Review Board approved trial (NCT00195091, 0903-882, 0309006307) at Weill Cornell Medical College (WCMC) Iris Cantor Breast Cancer Center. Written informed consent was obtained prior to undergoing any study-specific procedures in accordance with the Declaration of Helsinki.
Patients underwent imaging of investigator's choice, CT of chest, abdomen, and pelvis or PET/CT every 6 months and as needed to assess for relapse, using Response Evaluation Criteria in Solid Tumors (RECIST).
as §2

serum ceruloplasmin (Cp) = assay: Serum ceruloplasmin (Cp) levels / copper depletion, phase II TM trial; type: in vivo, human
Method: as §3
TM was administered in two phases, induction and maintenance: A) Induction: Patients self-administered TM 180 mg by mouth daily in 4 divided doses until serum Cp levels decreased to a target range of 5-16 mg/dL. One month of TM therapy comprised 1 cycle. Cp levels were tested every 2 weeks for the first 4 weeks and then weekly until target Cp was reached. When Cp levels were within target range, patients were switched to the maintenance phase. B) Maintenance: TM 100 mg taken daily in divided doses. Patients were followed every 2 weeks for 4 weeks to ensure Cp levels were stable then every 4 weeks. Dose reductions in 20 mg increments were allowed to minimize toxicity. Dose increases in 20 mg increments were allowed every 2 weeks to keep Cp levels in target range. […] Patients brought completed medication logs to each visit. The duration of the trial was 2 years.
The ITT population consisted of 39 patients. […] Target for copper depletion was defined as Cp below 17 mg/dL. Of those who took at least one dose of TM, 59% […] of patients were effectively copper depleted and 15 patients (37.5%) were unable to be copper depleted. Mean Cp of copper depleted pts and non-copper depleted patients was 13.5 and 22.3 mg/dL, respectively (FIG. 1a). Patients spent a median of 78% of time (range 58 to 100%) within target Cp levels during the study . . . . […] 91% of triple-negative patients successfully copper depleted compared to the hormone-receptor subtypes (38-43%) and HER2-positive subtypes (40-67%) (FIG. 7B).

For `[SH-].[SH-].[S]=[Mo]=[S]` [TM, Tetrathiomolybdate], the “median duration of stable disease” value [1] is listed as 34.5 weeks, the “median number of EPCs” value ([2]; at 1 year of TM therapy, median baseline 0.0398 (range 0-0.21), range 0-0.18) is listed as 0.0363 cells/uL and the “EPCs relative to baseline” value ([2]; majority of patients, when Cp was in the target range) is listed as “maintained below baseline”. The “stability when exposed to air” value [3] was 8 weeks, the “mean SDF1” value (SDF1, VEGFR2, C-kit; non-relapsed patients, decreased from 1870) was 1811 pg/mL and the “change in SDF1, VEGFR2, and C-kit” value (SDF1, VEGFR2, C-kit; patients while on therapy) was “did not significantly change”. The “mean SDF1” value (SDF1, VEGFR2, C-kit; patients who relapsed, increased from 2093) was 3052 pg/mL, the treatment-related deaths [4] was “no treatment-related deaths” and the time to progression (malignant mesothelioma) was 20 months. The “patients with grade 3 or 4 hematologic toxicity” value [5] was “up to 40%”, the “induction of copper depletion” value [6] was “effective at inducing copper depletion” and the “patients maintaining stable disease for at least 90 days” value [6] was 15 of 40. For the same compound, the tolerability [6] was “well-tolerated”, the “grade 3 anemia, cycles” value ([7]; 1 cycle, patient later diagnosed with B12 deficiency) was 0.2% and the “patients with dose interruptions, delays, reductions, or omissions due to toxicity” value ([7]; 3 of 39 ITT patients) was 7.7%. For the same compound, the “grade 1 peripheral neuropathy, cycles” value ([7]; 6 cycles) was 1.4%, the “grade ¾ neutropenia, patients” value ([7]; 9 patients) was 23.1% and the “grade ¾ neutropenia, cycles” value ([7]; 13 cycles) was 3.1%. The “grade ½ anemia, patients” value ([7]; 14 patients) was 35.9%, the “grade ½ neutropenia, patients” value ([7]; 23 patients) was 59.0% and the “grade 1 fatigue, cycles” value ([7]; 29 cycles) was 6.8%. For the same compound, the “grade ½ anemia, cycles” value ([7]; 50 cycles) was 11.7%, the “grade ½ neutropenia, cycles” value ([7]; 67 of 426 cycles) was 15.7% and the “sulfurous eructations, cycles” value ([7]; 79 cycles, resolved with a PPI in >90% of patients) was 18.5%. The overall tolerability ([7]; 426 cycles in 39 patients, first 12 months) was “well tolerated”, the “grade 3 or 4 non-hematologic toxicity” value ([7]; in vivo) was “no grade 3 or 4 non-hematologic toxicity” and the “grade 4 anemia” value ([7]; in vivo) was “no grade 4 incidences”. The “grade 1 or 2 gastrointestinal toxicity (nausea, vomiting or diarrhea)” value ([7]; managed with dose adjustment alone) was “Eight”, the “change in HPCs” value [8] was “no significant changes” and the “10-month PFS” value ([9]; all patients, 95% CI, 74.6-96.8%) was 85.0%. The “patients who developed recurrence” value ([9]; first 12 months of study, six patients) was 15%, the “10-month PFS” value ([9]; hormone-receptor-positive patients) was 85.7% and the “10-month PFS” value ([9]; stage 2 and 3 patients) was 89.3%. For the same compound, the “10-month PFS” value ([9]; stage 4 NED patients) was 75.0%, the “10-month PFS” value ([9]; triple-negative patients) was 81.8% and the “patients unable to be copper depleted” value (serum ceruloplasmin (Cp); 15 patients) was 37.5%. The “patients successfully copper depleted” value (serum ceruloplasmin (Cp); HER2-positive subtypes) was 40-67%, the “mean Cp level on TM” value (serum ceruloplasmin (Cp); ITT population, at a median of 4 weeks, median baseline Cp 29.7 mg/dL (range 21 to 47), range 7 to 26) was 14.2 mg/dL and the “mean Cp of copper depleted pts” value (serum ceruloplasmin (Cp); copper depleted patients) was 13.5 mg/dL. The “patients successfully copper depleted” value (serum ceruloplasmin (Cp); hormone-receptor subtypes) was 38-43%, the “mean Cp of non-copper depleted patients” value (serum ceruloplasmin (Cp); non-copper depleted patients) was 22.3 mg/dL and the “median % of time within target Cp levels during the study” value (serum ceruloplasmin (Cp); range 58 to 100%) was 78%. The “patients effectively copper depleted” value (serum ceruloplasmin (Cp); those who took at least one dose of TM, target Cp below 17 mg/dL, printed 23/40) was 59% and the “patients successfully copper depleted” value (serum ceruloplasmin (Cp); triple-negative patients) was 91%.
